From patent publication US4183935A, “Bispidine derivatives, their preparation, and drugs containing same” (priority 1977, dated 1980)
Where a name gives a salt, the structure may show the parent alone. Read-outs that look alike come from different tables or passages of the source.

Experiments:
Type in all cases: in vivo, rats (Sprague Dawley)
in vivo = conditions: in vivo; rat, oral; dose at which the maximum effect is achieved; read-out: Maximum effect: Dose (maximum tolerated dose)
Experimental: (§1) To determine their anti-arrhythmic activity, the substances were administered orally to rats (Sprague Dawley, weight 200-250 g) 45 minutes before starting a thiobutabarbital narcosis (100 mg/kg administered intraperitoneally). Aconitine was used to produce arrhythmias, and was infused intravenously 60 minutes after administration of the active substance (dosage rate 0.005 mg/kg per minute). In the untreated animals, arrhythmias manifest themselves after an average of 3.32 minutes, and their occurrence can be delayed by anti-arrhythmic agents, the delay being dependent on the dose. The ED50% is the does which increases by 50% the duration of infusion up to the occurrence of arrhythmias. R.E. is the relative effect, based on quinidine.ident.1.00. The maximum effect is that achieved by administering the maximum tolerated dose. .increment.% indicates the percentage by which the duration of the aconitine infusion can be increased. R.M.E. is the relative maximum effectiveness, based on quinidine.ident.1.00. The dose producing a toxic effect indicates the amount (in mg/kg) at which the first toxic symptoms such as cyanosis or changes in ECG occur. Q is the quotient of the toxic dose and the ED50%.

[1] = system: arrhythmias produced by aconitine; assay: animal or person; conditions: for ED50: Rattus norvegicus, po, read-out: Effective dose ED50% (dose which increases by 50% the duration of infusion up to the occurrence of arrhythmias); for R.E. (relative effect, based on quinidine = 1.00): from ED50%; for R.M.E. (relative maximum effectiveness, based on quinidine = 1.00): from maximum effect; for Maximum effect: Δ% (percentage by which the duration of the aconitine infusion can be increased): rat, oral, at the maximum tolerated dose
Experimental: as §1

[2] = toxic effect: dose at which first toxic symptoms such as cyanosis or changes in ECG occur; conditions: for Toxic effect: Dose (dose producing a toxic effect): first toxic symptoms such as cyanosis or changes in ECG; for selectivity ratio: rat, in vivo, po
Experimental: as §1

[3] = toxic dose / ED50%, read-out: Q (quotient of the toxic dose and the ED50%)

What does the source list for C=C[C@H]1C[N@@]2CC[C@H]1C[C@@H]2[C@@H](O)c1ccnc2ccc(OC)cc12 [Quinidine, reference compound]?
MTD (in vivo): 215 mg/kg; ED50 [1]: 42.7 mg/kg; R.E. (relative effect, based on quinidine = 1.00) [1]: 1.00; R.M.E. (relative maximum effectiveness, based on quinidine = 1.00) [1]: 1.00; Maximum effect: Δ% (percentage by which the duration of the aconitine infusion can be increased) [1]: 133%; Toxic effect: Dose (dose producing a toxic effect) [2]: 464 mg/kg; selectivity ratio [2]: 10.9

With c1ccc(CN2CC3CC(C2)CN(C(c2ccccc2)c2ccccc2)C3)cc1 [C6 H5 H H 0, N-Benzyl-N'-benzhydryl-bispidine fumarate] as the compound, how does the MTD (in vivo) read?
Its MTD is 215 mg/kg.

And the ED50 [1]?
The ED50 was 20.4 mg/kg.

What about the “R.E. (relative effect, based on quinidine = 1.00)” value [1] of the same compound?
Its value is 2.09.

What about the “R.M.E. (relative maximum effectiveness, based on quinidine = 1.00)” value [1] of the same compound?
Its value is 1.54.

And the “Maximum effect: Δ% (percentage by which the duration of the aconitine infusion can be increased)” value [1]?
Its value is 205%.

And the “Toxic effect: Dose (dose producing a toxic effect)” value (from here on “Toxic effect: Dose”) [2]?
The value was 464 mg/kg.

And the selectivity ratio [2, 3]?
Its selectivity ratio is 22.8.

Which MTD (in vivo) does the source give for c1ccc(CN2CC3CC(C2)CN(CC(c2ccccc2)c2ccccc2)C3)cc1 [C6 H5 H H 1, N-benzyl-N'-2,2-diphenylethylbispidine fumarate x H2 O] here?
The MTD was 46.4 mg/kg.

And the ED50 [1]?
Its ED50 is 13 mg/kg.

And the “R.E. (relative effect, based on quinidine = 1.00)” value [1]?
Its value is 3.28.

What about the “R.M.E. (relative maximum effectiveness, based on quinidine = 1.00)” value [1] of the same compound?
Its value is 1.53.

And the “Maximum effect: Δ% (percentage by which the duration of the aconitine infusion can be increased)” value [1]?
Its value is 203%.

And the “Toxic effect: Dose” value [2]?
Its value is 100 mg/kg.

And the selectivity ratio [2, 3]?
Its selectivity ratio is 7.7.

With Fc1ccc(CN2CC3CC(CN(Cc4ccccc4)C3)C2)cc1 [H H F 0, N-Benzyl-N'-(4-fluorobenzyl)-bispidine fumarate] as the compound, how does the MTD (in vivo) read?
Its MTD is 100 mg/kg.

What about the ED50 [1] of the same compound?
The ED50 was 20.2 mg/kg.

And the “R.E. (relative effect, based on quinidine = 1.00)” value [1]?
The value was 2.11.

And the “R.M.E. (relative maximum effectiveness, based on quinidine = 1.00)” value [1]?
Its value is 1.80.

What about the “Maximum effect: Δ% (percentage by which the duration of the aconitine infusion can be increased)” value [1] of the same compound?
Its value is 240%.

And the “Toxic effect: Dose” value [2]?
The value was 215 mg/kg.

And the selectivity ratio [2, 3]?
Its selectivity ratio is 10.6.

For FC(F)(F)c1cccc(CN2CC3CC(CN(Cc4ccccc4)C3)C2)c1 [H CF3 H 0, N-Benzyl-N'-(3-trifluoromethylbenzyl)-bispidine fumarate], which MTD (in vivo) is on record?
Its MTD is 100 mg/kg.

What about the ED50 [1] of the same compound?
Its ED50 is 25.4 mg/kg.

And the “R.E. (relative effect, based on quinidine = 1.00)” value [1]?
Its value is 1.68.

What about the “R.M.E. (relative maximum effectiveness, based on quinidine = 1.00)” value [1] of the same compound?
Its value is 1.82.

What about the “Maximum effect: Δ% (percentage by which the duration of the aconitine infusion can be increased)” value [1] of the same compound?
Its value is 242%.

What about the “Toxic effect: Dose” value [2] of the same compound?
Its value is 215 mg/kg.

With Clc1cccc(CN2CC3CC(CN(Cc4ccccc4)C3)C2)c1 [H Cl H 0, N-benzyl-N'-(3-chlorobenzyl)-bispidine fumarate] as the compound, how does the MTD (in vivo) read?
Its MTD is 46.4 mg/kg.

What about the ED50 [1] of the same compound?
Its ED50 is 16.6 mg/kg.

And the “R.E. (relative effect, based on quinidine = 1.00)” value [1]?
Its value is 2.57.

What about the “R.M.E. (relative maximum effectiveness, based on quinidine = 1.00)” value [1] of the same compound?
The value was 0.92.

What about the “Maximum effect: Δ% (percentage by which the duration of the aconitine infusion can be increased)” value [1] of the same compound?
The value was 123%.

And the “Toxic effect: Dose” value [2]?
The value was 100 mg/kg.

And the selectivity ratio [2, 3]?
Its selectivity ratio is 6.

Which results are given for Clc1ccc(CN2CC3CC(CN(Cc4ccccc4)C3)C2)cc1Cl [H Cl Cl 0, N-Benzyl-N'-(3,4-dichlorobenzyl)-bispidine fumarate]?
MTD (in vivo): 215 mg/kg; ED50 [1]: 15.6 mg/kg; R.E. (relative effect, based on quinidine = 1.00) [1]: 2.74; R.M.E. (relative maximum effectiveness, based on quinidine = 1.00) [1]: 2.13; Maximum effect: Δ% (percentage by which the duration of the aconitine infusion can be increased) [1]: 283%; Toxic effect: Dose (dose producing a toxic effect) [2]: 464 mg/kg; selectivity ratio [2, 3]: 29.7
